From PubChem BioAssay AID2060621 (Molecular Pharmacology Branch, DTP, NCI, 2025)

Test system: 324938-238-R-J1-PDC complex spheroids viability
Test: Anticancer human tumor 324938-238-R-J1-PDC patient-derived bladder carcinoma cell line growth inhibition [CLK]
Details: for IC50: curve of first compound; for viability, T/C: stronger effect = lower value
Outline: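 Multi-cell-type spheroids combined patient-derived tumor cells with HUVEC endothelial cells and human mesenchymal stem cells. Paired agents were dosed in half-log steps down from about clinical Cmax, or from 10 microM where Cmax was unknown.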

[1] = second compound 0.0316 µM, first compound 0.0316 µM
[2] = second compound 0.0316 µM, first compound 0.1 µM
[3] = second compound 0.0316 µM, first compound 0.316 µM
[4] = second compound 0.0316 µM, first compound 1 µM
[5] = second compound 0.0316 µM, first compound 3.16 µM
[6] = second compound 0.0316 µM, first compound 10 µM
[7] = second compound 0.1 µM, first compound 0.0316 µM
[8] = second compound 0.1 µM, first compound 0.1 µM
[9] = second compound 0.1 µM, first compound 0.316 µM
[10] = second compound 0.1 µM, first compound 1 µM
[11] = second compound 0.1 µM, first compound 3.16 µM
[12] = second compound 0.1 µM, first compound 10 µM
[13] = second compound 0.316 µM, first compound 0.0316 µM
[14] = second compound 0.316 µM, first compound 0.1 µM
[15] = second compound 0.316 µM, first compound 0.316 µM
[16] = second compound 0.316 µM, first compound 1 µM
[17] = second compound 0.316 µM, first compound 3.16 µM
[18] = second compound 0.316 µM, first compound 10 µM
[19] = second compound 1 µM, first compound 0.0316 µM
[20] = second compound 1 µM, first compound 0.1 µM
[21] = second compound 1 µM, first compound 0.316 µM
[22] = second compound 1 µM, first compound 1 µM
[23] = second compound 1 µM, first compound 3.16 µM
[24] = second compound 1 µM, first compound 10 µM
[25] = second compound 3.16 µM, first compound 0.0316 µM
[26] = second compound 3.16 µM, first compound 0.1 µM
[27] = second compound 3.16 µM, first compound 0.316 µM
[28] = second compound 3.16 µM, first compound 1 µM
[29] = second compound 3.16 µM, first compound 3.16 µM
[30] = second compound 3.16 µM, first compound 10 µM
[31] = second compound 10 µM, first compound 0.0316 µM
[32] = second compound 10 µM, first compound 0.1 µM
[33] = second compound 10 µM, first compound 0.316 µM
[34] = second compound 10 µM, first compound 1 µM
[35] = second compound 10 µM, first compound 3.16 µM
[36] = second compound 10 µM, first compound 10 µM
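Also: viability read after seven days of drug exposure.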
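For viability, T/C in this document: 100% = DMSO vehicle control wells.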

CC1(C)CCC(CN2CCN(c3ccc(C(=O)NS(=O)(=O)c4ccc(NCC5CCOCC5)c([N+](=O)[O-])c4)c(Oc4cnc5[nH]ccc5c4)c3)CC2)=C(c2ccc(Cl)cc2)C1 + CNC(=O)c1ccc(Nc2nc(OC3CCCC3)c3c(-c4ccc5nc(C)oc5c4)c[nH]c3n2)c(OC)c1
IC50 (second compound 0.0316 µM): 4520 nM
IC50 (second compound 0.1 µM): < 31.6 nM
IC50 (second compound 0.316 µM): < 31.6 nM
IC50 (second compound 1 µM): < 31.6 nM
IC50 (second compound 3.16 µM): < 31.6 nM
IC50 (second compound 10 µM): < 31.6 nM
viability, T/C [1]: 76.8%
viability, T/C [2]: 78.4%
viability, T/C [3]: 84.1%
viability, T/C [4]: 83.6%
viability, T/C [5]: 69.4%
viability, T/C [6]: 6.56%
viability, T/C [7]: 29.6%
viability, T/C [8]: 25.7%
viability, T/C [9]: 26.6%
viability, T/C [10]: 19.6%
viability, T/C [11]: 19.8%
viability, T/C [12]: 4.63%
viability, T/C [13]: 18.9%
viability, T/C [14]: 14.3%
viability, T/C [15]: 15.2%
viability, T/C [16]: 13.7%
viability, T/C [17]: 14.6%
viability, T/C [18]: 4.21%
viability, T/C [19]: 14.7%
viability, T/C [20]: 21.3%
viability, T/C [21]: 14.7%
viability, T/C [22]: 14.5%
viability, T/C [23]: 13.2%
viability, T/C [24]: 7.92%
viability, T/C [25]: 17.9%
viability, T/C [26]: 14.5%
viability, T/C [27]: 14%
viability, T/C [28]: 14.8%
viability, T/C [29]: 13.6%
viability, T/C [30]: 8.16%
viability, T/C [31]: 14.8%
viability, T/C [32]: 15.1%
viability, T/C [33]: 15.8%
viability, T/C [34]: 14.7%
viability, T/C [35]: 14%
viability, T/C [36]: 7.47%

NC(=O)C(=Cn1cnc(-c2cc(C(F)(F)F)cc(C(F)(F)F)c2)n1)c1cncnc1 + CNC(=O)c1ccc(Nc2nc(OC3CCCC3)c3c(-c4ccc5nc(C)oc5c4)c[nH]c3n2)c(OC)c1
IC50 (second compound 0.0316 µM): 60.8 nM
IC50 (second compound 0.1 µM): < 9.49 nM
IC50 (second compound 0.316 µM): < 9.49 nM
IC50 (second compound 1 µM): < 9.49 nM
IC50 (second compound 3.16 µM): < 9.49 nM
IC50 (second compound 10 µM): < 9.49 nM
viability, T/C (second compound 0.0316 µM, first compound 0.00949 µM): 67.1%
viability, T/C (second compound 0.0316 µM, first compound 0.03 µM): 74.3%
viability, T/C (second compound 0.0316 µM, first compound 0.0949 µM): 36.9%
viability, T/C (second compound 0.0316 µM, first compound 0.3 µM): 14.3%
viability, T/C (second compound 0.0316 µM, first compound 0.949 µM): 8.38%
viability, T/C (second compound 0.0316 µM, first compound 3 µM): 3.32%
viability, T/C (second compound 0.1 µM, first compound 0.00949 µM): 21.3%
viability, T/C (second compound 0.1 µM, first compound 0.03 µM): 24.6%
viability, T/C (second compound 0.1 µM, first compound 0.0949 µM): 16.9%
viability, T/C (second compound 0.1 µM, first compound 0.3 µM): 12.7%
viability, T/C (second compound 0.1 µM, first compound 0.949 µM): 8.37%
viability, T/C (second compound 0.1 µM, first compound 3 µM): 3.77%
viability, T/C (second compound 0.316 µM, first compound 0.00949 µM): 15.7%
viability, T/C (second compound 0.316 µM, first compound 0.03 µM): 15.5%
viability, T/C (second compound 0.316 µM, first compound 0.0949 µM): 13.7%
viability, T/C (second compound 0.316 µM, first compound 0.3 µM): 7.83%
viability, T/C (second compound 0.316 µM, first compound 0.949 µM): 3.16%
viability, T/C (second compound 0.316 µM, first compound 3 µM): 2.69%
viability, T/C (second compound 1 µM, first compound 0.00949 µM): 12.9%
viability, T/C (second compound 1 µM, first compound 0.03 µM): 12.8%
viability, T/C (second compound 1 µM, first compound 0.0949 µM): 9.03%
viability, T/C (second compound 1 µM, first compound 0.3 µM): 5.74%
viability, T/C (second compound 1 µM, first compound 0.949 µM): 3.19%
viability, T/C (second compound 1 µM, first compound 3 µM): 1%
viability, T/C (second compound 3.16 µM, first compound 0.00949 µM): 16.2%
viability, T/C (second compound 3.16 µM, first compound 0.03 µM): 14.1%
viability, T/C (second compound 3.16 µM, first compound 0.0949 µM): 8.67%
viability, T/C (second compound 3.16 µM, first compound 0.3 µM): 4.86%
viability, T/C (second compound 3.16 µM, first compound 0.949 µM): 2.59%
viability, T/C (second compound 3.16 µM, first compound 3 µM): 1.1%
viability, T/C (second compound 10 µM, first compound 0.00949 µM): 14.4%
viability, T/C (second compound 10 µM, first compound 0.03 µM): 13%
viability, T/C (second compound 10 µM, first compound 0.0949 µM): 9.72%
viability, T/C (second compound 10 µM, first compound 0.3 µM): 5.02%
viability, T/C (second compound 10 µM, first compound 0.949 µM): 2.24%
viability, T/C (second compound 10 µM, first compound 3 µM): 0.98%

Nc1ccccc1NC(=O)c1ccc(CNC(=O)OCc2cccnc2)cc1 + CNC(=O)c1ccc(Nc2nc(OC3CCCC3)c3c(-c4ccc5nc(C)oc5c4)c[nH]c3n2)c(OC)c1
IC50 (second compound 0.0316 µM): 1470 nM
IC50 (second compound 0.1 µM): < 31.6 nM
IC50 (second compound 0.316 µM): < 31.6 nM
IC50 (second compound 1 µM): < 31.6 nM
IC50 (second compound 3.16 µM): < 31.6 nM
IC50 (second compound 10 µM): < 31.6 nM
viability, T/C [1]: 78.2%
viability, T/C [2]: 91.8%
viability, T/C [3]: 69%
viability, T/C [4]: 57.2%
viability, T/C [5]: 35%
viability, T/C [6]: 5.41%
viability, T/C [7]: 31.1%
viability, T/C [8]: 32.7%
viability, T/C [9]: 30.4%
viability, T/C [10]: 34%
viability, T/C [11]: 32.6%
viability, T/C [12]: 4.92%
viability, T/C [13]: 15.1%
viability, T/C [14]: 17%
viability, T/C [15]: 15.8%
viability, T/C [16]: 23.2%
viability, T/C [17]: 26.1%
viability, T/C [18]: 3.89%
viability, T/C [19]: 14.2%
viability, T/C [20]: 14.6%
viability, T/C [21]: 16.7%
viability, T/C [22]: 23.7%
viability, T/C [23]: 26.2%
viability, T/C [24]: 2.44%
viability, T/C [25]: 13%
viability, T/C [26]: 15.2%
viability, T/C [27]: 18.6%
viability, T/C [28]: 18.9%
viability, T/C [29]: 26.2%
viability, T/C [30]: 2.46%
viability, T/C [31]: 15.2%
viability, T/C [32]: 17.1%
viability, T/C [33]: 19%
viability, T/C [34]: 20.7%
viability, T/C [35]: 25.8%
viability, T/C [36]: 2.14%
